Assays:
Assay type in all cases: in vivo, male C57/BL mice
[1] = tested on: COX2; assay: RT-qPCR of COX2 mRNA in brain tissue; conditions: 72 h, three days of administration, compound 2 100 mg/kg, compound 1 50 mg/kg, P<0.001
Description: (§1) Grouping and administration method: Male C57/BL mice weighing 23±1 g were randomly divided into sham operation group (SHAM), model group (MCAO), compound 2 group (100 mg/kg), and compound 1 group (50 mg/kg), with 10 mice in each group. Mice in the SHAM group underwent vascular isolation, but no […] was administered, and no treatment was given before or after surgery. The model group mice were constructed with MCAO models and were not treated before and after surgery. The treatment group was treated with compound 2 or compound 1 on the basis of the model group. Mice with a neurological score of 0 after reperfusion and those that died before 72 hours post-surgery were excluded. […]
(§2) To investigate the effect of compounds on the expression of inflammatory factors after ischemia-reperfusion, this study used immunofluorescence experiments to observe the expression of TNF-α, IL-1β, IL-6, iNOS, and COX2 proteins in brain tissue. […] The concentrations of TNF-α, IL-1β, and IL-6 in brain homogenate were detected by enzyme-linked immunosorbent assay (ELISA), and the expression level of TNF-α protein in brain tissue was detected by Western blot.
After 72 hours of ischemia-reperfusion, the mRNA expression levels of TNF-α, IL-1β, IL-6, iNOS, and COX2 in brain tissue were detected and analyzed by RT-qPCR. […]

[2] = tested on: IL-6; assay: ELISA of IL-6 in brain homogenate; conditions: 72 h, three days of administration, compound 2 100 mg/kg, compound 1 50 mg/kg
Description: as §1, §2
After 72 hours of ischemia-reperfusion, the expression levels of inflammatory factors TNF-α, IL-1β, and IL-6 in the mouse brain homogenate were detected.

[3] = tested on: TNF-α; assay: TNF-α protein Western blot in brain tissue; conditions: 72 h; for TNF-α protein expression reduced compared with MCAO group: three days of administration, compound 2 100 mg/kg, compound 1 50 mg/kg, P<0.001
Description: (§3) Grouping and administration method: Male C57/BL mice weighing 23±1 g were randomly divided into sham operation group (SHAM), model group (MCAO), compound 2 group (100 mg/kg), and compound 1 group (50 mg/kg), with 10 mice in each group. Mice in the SHAM group underwent vascular isolation, but no […] was administered, and no treatment was given before or after surgery. The model group mice were constructed with MCAO models and were not treated before and after surgery. The treatment group was treated with compound 2 or compound 1 on the basis of the model group. Mice with a neurological score of 0 after reperfusion and those that died before 72 hours post-surgery were excluded. The administration time for animal behavior tests was seven times at 0 h, 1 day, 2 days, 3 days, 4 days, 5 days, and 6 days after reperfusion, while the administration time for other experiments was three times at 0 h, 1 day, and 2 days after reperfusion. The drug was administered through the tail vein, and the sham operation group and model group were given equal amounts of saline.
as §2
After 72 hours of ischemia-reperfusion, the expression level of TNF-α protein in brain tissue was detected by Western blot. […] In this experiment, β-actin was used as an internal reference protein. n=3, data are presented as mean±SEM, analyzed with one-way ANOVA, and subjected to Tukey's HSD test. *P<0.05, **P<0.01, ***P<0.001. ^#P<0.05, ^##P<0.01, ^###P<0.001. * indicates a comparison with the SHAM group, ^# indicates a comparison with the compound 2 group.

[4] = tested on: TNF-α; assay: TNF-α immunofluorescence in brain tissue; conditions: 72 h ischemia-reperfusion; compound 2 100 mg/kg, compound 1 50 mg/kg; MCAO group 361±48; mean±SEM, n=3
Description: as §1, §2
After 72 hours of ischemia-reperfusion, the expression changes of inflammatory factors such as TNF-α, IL-1β, IL-6, iNOS, and COX2 in brain regions were analyzed by immunofluorescence staining. […]

[5] = tested on: HIF-1α; assay: RT-qPCR of HIF-1α mRNA in brain tissue; conditions: 72 h; for HIF-1α mRNA expression level reduced compared with MCAO group: three days of administration, compound 2 100 mg/kg, compound 1 50 mg/kg
Description: as §3
HIF-1α is a sensitive regulator of oxygen homeostasis, rapidly inducing its expression after hypoxia-ischemia. It plays a wide range of roles in the pathophysiology of stroke, including neuronal survival, neuroinflammation, angiogenesis, glucose metabolism, and blood-brain barrier regulation. It can not only produce specific sensations in the case of hypoxia, but also facilitate the maintenance of oxygen homeostasis in the body. […]
After 72 hours of ischemia-reperfusion, the mRNA expression level of HIF-1α in brain tissue was detected and analyzed by RT-qPCR. […] Compared with the compound 1 group, the expression level of HIF-1α in the compound 2 group decreased by 53±11% (P<0.001). n=3, data are presented as mean±SEM, analyzed using one-way ANOVA, and subjected to Tukey's HSD test. *P<0.05, **P<0.01, ***P<0.001. ^#P<0.05, ^##P<0.01, ^###P<0.001. * indicates a comparison with the SHAM group, indicates a comparison with the Compound 2 group.

SMILES | COX2 mRNA expression compared with MCAO group [1] | Decrease in IL-6 expression compared with MCAO group [2] | TNF-α protein expression reduced compared with MCAO group [3] | Number of TNF-α-positive cells [4] | HIF-1α mRNA expression level reduced compared with MCAO group [5] | TNF-α protein expression decreased compared with the compound 1 group ([3]; compound 2 100 mg/kg vs compound 1 50 mg/kg, P<0.05) | HIF-1α mRNA expression level decreased compared with the compound 1 group ([5]; compound 2 100 mg/kg vs compound 1 50 mg/kg, P<0.001)
O=C(O)c1cc(O)ccc1O [compound 1] | significantly reduced | reduced to varying degrees | 20±10% | 244±36 /mm^2 | 41±13% |  | 
O=C(O)c1cc(OP(=O)(O)O)ccc1OP(=O)(O)O [compound 2] | significantly reduced | 40±10% | 40±12% | 140±35 /mm^2 | 75±17% | 31±20% | 53±11%

Reference: patent US20250352500A1, “USE OF PHENOLIC ACIDS DERIVATIVES IN TREATING ISCHEMIC STROKE” (LANZHOU UNIVERSITY, priority 2022, published 2025)
